In patent US20250101041A1, “POSITIVE ALLOSTERIC MODULATORS OF THE MUSCARINIC ACETYLCHOLINE RECEPTOR M4” (Vanderbilt University, priority 2022, published 2025):

Target: T1, human mAChR M4 (Homo sapiens, UniProt P08173)
T1 construct: expressed in transfected cells; host or cells: CHO-K1 (American Type Culture Collection), stably expressing hM4 and Gqi5
T1 sequence (P08173 1-479): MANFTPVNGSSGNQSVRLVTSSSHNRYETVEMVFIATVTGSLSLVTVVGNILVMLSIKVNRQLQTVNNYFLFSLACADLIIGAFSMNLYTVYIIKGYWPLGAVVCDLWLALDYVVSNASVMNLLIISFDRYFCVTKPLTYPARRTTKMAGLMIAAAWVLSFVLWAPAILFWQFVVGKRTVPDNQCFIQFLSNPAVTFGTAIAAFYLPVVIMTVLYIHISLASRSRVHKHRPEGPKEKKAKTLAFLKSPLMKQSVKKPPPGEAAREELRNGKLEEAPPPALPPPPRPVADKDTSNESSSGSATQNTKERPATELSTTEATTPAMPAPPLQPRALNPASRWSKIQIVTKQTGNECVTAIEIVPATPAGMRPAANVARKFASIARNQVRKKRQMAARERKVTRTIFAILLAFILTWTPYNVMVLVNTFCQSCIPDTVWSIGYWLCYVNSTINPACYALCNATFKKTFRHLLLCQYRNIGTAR
Experiment: mAChR M4 cell-based functional assay: calcium mobilization (Fluo-4, FDSS), potentiation of EC20 acetylcholine response in hM4-Gqi5 CHO-K1 cells
Conditions: human M4; for Emax at 30 µM: CHO-K1, % ACh maximum at 30 μM; for EC50: potentiation of EC20 acetylcholine response, calcium mobilization
Procedure, shortened: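 CHO-K1 cells stably co-expressing human M4 and chimeric Gqi5, loaded with Fluo-4 AM (50 min, 37 °C). Compounds in 11-point 1:3 series added first; EC20 acetylcholine added at 144 s and again at 230 s. Calcium read on FDSS at 1 Hz; EC50 and Emax from four-parameter logistic fit of potentiated EC20 response.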

Emax at 30 µM [%] | EC50 [nM] | SMILES
65 | 735 | COc1ccccc1-c1cnc2c(c1)CN(c1nn3c(=O)cc(C)nc3cc1C)CC2 [Compound 1-233, 7-(3-(2-methoxyphenyl)-7,8-dihydro-1,6-naphthyridin-6(5H)-yl)-2,8-dimethyl-4H-pyrimido[1,2-b]pyridazin-4-one]
71 | 235 | Cc1cc(=O)n2nc(N3CCc4ncc(-c5ccccc5F)cc4C3)c(C)cc2n1 [Compound 1-234, 7-(3-(2-fluorophenyl)-7,8-dihydro-1,6-naphthyridin-6(5H)-yl)-2,8-dimethyl-4H-pyrimido[1,2-b]pyridazin-4-one]
62 | 568 | Cc1cc(=O)n2nc(N3CCc4ncc(-c5ccccc5O)cc4C3)c(C)cc2n1 [Compound 1-235, 7-(3-(2-hydroxyphenyl)-7,8-dihydro-1,6-naphthyridin-6(5H)-yl)-2,8-dimethyl-4H-pyrimido[1,2-b]pyridazin-4-one]
87 | 1600 | Cc1cc(=O)n2nc(N3CCc4ncc(-c5cc(F)ccc5F)cc4C3)c(C)cc2n1 [Compound 1-236, 7-(3-(2,5-difluorophenyl)-7,8-dihydro-1,6-naphthyridin-6(5H)-yl)-2,8-dimethyl-4H-pyrimido[1,2-b]pyridazin-4-one]
100 | 365 | Cc1cc(=O)n2nc(N3CCc4ncc(-c5ccccc5C)cc4C3)c(C)cc2n1 [Compound 1-237, 2,8-dimethyl-7-(3-(o-tolyl)-7,8-dihydro-1,6-naphthyridin-6(5H)-yl)-4H-pyrimido[1,2-b] pyridazin-4-one]
92 | 711 | Cc1cc(=O)n2nc(N3CCc4ncc(-c5cc(F)ncc5C)cc4C3)c(C)cc2n1 [Compound 1-238, 7-(3-(2-fluoro-5-methylpyridin-4-yl)-7,8-dihydro-1,6-naphthyridin-6(5H)-yl)-2,8-dimethyl-4H-pyrimido[1,2-b]pyridazin-4-one]
78 | 98 | Cc1cc(-c2cnc3c(c2)CN(c2nn4c(=O)cc(C)nc4cc2C)CC3)ccn1 [Compound 1-239, 2,8-dimethyl-7-(3-(2-methylpyridin-4-yl)-7,8-dihydro-1,6-naphthyridin-6(5H)-yl)-4H-pyrimido[1,2-b] pyridazin-4-one]
86 | 284 | Cc1cc(=O)n2nc(N3CCc4ncc(-c5ccncc5)cc4C3)c(C)cc2n1 [Compound 1-240, 2,8-dimethyl-7-(3-(pyridin-4-yl)-7,8-dihydro-1,6-naphthyridin-6(5H)-yl)-4H-pyrimido[1,2-b]pyridazin-4-one]
87 | 228 | Cc1cc(=O)n2nc(N3CCc4ncc(-c5ccncc5C)cc4C3)c(C)cc2n1 [Compound 1-241, 2,8-dimethyl-7-(3-(3-methylpyridin-4-yl)-7,8-dihydro-1,6-naphthyridin-6(5H)-yl)-4H-pyrimido[1,2-b] pyridazin-4-one]
79 | 612 | Cc1cc(=O)n2nc(N3CCc4ncc(-c5cc(F)nc(F)c5)cc4C3)c(C)cc2n1 [Compound 1-242, 7-(3-(2,6-difluoropyridin-4-yl)-7,8-dihydro-1,6-naphthyridin-6(5H)-yl)-2,8-dimethyl-4H-pyrimido[1,2-b]pyridazin-4-one]
84 | 124 | Cc1cc(-c2cnc3c(c2)CN(c2nn4c(=O)cc(C)nc4c(C)c2C)CC3)ccn1 [Compound 1-243, 2,8,9-trimethyl-7-(3-(2-methylpyridin-4-yl)-7,8-dihydro-1,6-naphthyridin-6(5H)-yl)-4H-pyrimido[1,2-b] pyridazin-4-one]
82 | 112 | Cc1cc(=O)n2nc(N3CCc4ncc(-c5ccncc5)cc4C3)c(C)c(C)c2n1 [Compound 1-244, 2,8,9-trimethyl-7-(3-(pyridin-4-yl)-7,8-dihydro-1,6-naphthyridin-6(5H)-yl)-4H-pyrimido[1,2-b]pyridazin-4-one]
87 | 72 | Cc1cc(=O)n2nc(N3CCc4ncc(-c5ccncc5C)cc4C3)c(C)c(C)c2n1 [Compound 1-245, 2,8,9-trimethyl-7-(3-(3-methylpyridin-4-yl)-7,8-dihydro-1,6-naphthyridin-6(5H)-yl)-4H-pyrimido[1,2-b] pyridazin-4-one]
80 | 1020 | Cc1cc(=O)n2nc(N3CCc4ncc(-c5cc(F)nc(F)c5)cc4C3)c(C)c(C)c2n1 [Compound 1-246, 7-(3-(2,6-difluoropyridin-4-yl)-7,8-dihydro-1,6-naphthyridin-6(5H)-yl)-2,8,9-trimethyl-4H-pyrimido[1,2-b]pyridazin-4-one]
55 | 1030 | Cc1cc(=O)n2nc(N3CCc4ncc(-c5ccccc5C(C)C)cc4C3)c(C)c(C)c2n1 [Compound 1-247, 7-(3-(2-isopropylphenyl)-7,8-dihydro-1,6-naphthyridin-6(5H)-yl)-2,8,9-trimethyl-4H-pyrimido[1,2-b]pyridazin-4-one]
80 | 852 | Cc1cc(=O)n2nc(N3CCc4ncc(-c5ccccc5C5CC5)cc4C3)c(C)c(C)c2n1 [Compound 1-248, 7-(3-(2-cyclopropylphenyl)-7,8-dihydro-1,6-naphthyridin-6(5H)-yl)-2,8,9-trimethyl-4H-pyrimido[1,2-b]pyridazin-4-one]
87 | 1000 | CCc1ccccc1-c1cnc2c(c1)CN(c1nn3c(=O)cc(C)nc3c(C)c1C)CC2 [Compound 1-249, 7-(3-(2-ethylphenyl)-7,8-dihydro-1,6-naphthyridin-6(5H)-yl)-2,8,9-trimethyl-4H-pyrimido[1,2-b]pyridazin-4-one]
79 | 1010 | COc1ccccc1-c1cnc2c(c1)CN(c1nn3c(=O)cc(C)nc3c(C)c1C)CC2 [Compound 1-250, 7-(3-(2-methoxyphenyl)-7,8-dihydro-1,6-naphthyridin-6(5H)-yl)-2,8,9-trimethyl-4H-pyrimido[1,2-b]pyridazin-4-one]
84 | 289 | Cc1cc(=O)n2nc(N3CCc4ncc(-c5ccccc5F)cc4C3)c(C)c(C)c2n1 [Compound 1-251, 7-(3-(2-fluorophenyl)-7,8-dihydro-1,6-naphthyridin-6(5H)-yl)-2,8,9-trimethyl-4H-pyrimido[1,2-b]pyridazin-4-one]
70 | 631 | Cc1cc(F)c(F)c(-c2cnc3c(c2)CN(c2nn4c(=O)cc(C)nc4cc2C)CC3)c1 [Compound 1-252, 7-(3-(2,3-difluoro-5-methylphenyl)-7,8-dihydro-1,6-naphthyridin-6(5H)-yl)-2,8-dimethyl-4H-pyrimido[1,2-b]pyridazin-4-one]
54 | 2330 | Cc1cc(=O)n2nc(N3CCc4ncc(-c5cc(F)cc(F)c5F)cc4C3)c(C)cc2n1 [Compound 1-253, 2,8-dimethyl-7-(3-(2,3,5-trifluorophenyl)-7,8-dihydro-1,6-naphthyridin-6(5H)-yl)-4H-pyrimido[1,2-b] pyridazin-4-one]
48 | 1370 | Cc1cc(=O)n2nc(N3CCc4ncc(-c5ccccc5OC(F)(F)F)cc4C3)c(C)cc2n1 [Compound 1-254, 2,8-dimethyl-7-(3-(2-(trifluoromethoxy)phenyl)-7,8-dihydro-1,6-naphthyridin-6(5H)-yl)-4H-pyrimido[1,2-b]pyridazin-4-one]
60 | 2370 | Cc1cc(=O)n2nc(N3CCc4ncc(-c5ccccc5C(F)(F)F)cc4C3)c(C)cc2n1 [Compound 1-255, 2,8-dimethyl-7-(3-(2-(trifluoromethyl)phenyl)-7,8-dihydro-1,6-naphthyridin-6(5H)-yl)-4H-pyrimido[1,2-b] pyridazin-4-one]
71 | 578 | Cc1cc(=O)n2nc(N3CCc4ncc(-c5ccccc5Cl)cc4C3)c(C)cc2n1 [Compound 1-256, 7-(3-(2-chlorophenyl)-7,8-dihydro-1,6-naphthyridin-6(5H)-yl)-2,8-dimethyl-4H-pyrimido[1,2-b]pyridazin-4-one]
76 | 339 | Cc1cc(=O)n2nc(N3CCc4ncc(-c5ccc(F)cc5F)cc4C3)c(C)cc2n1 [Compound 1-257, 7-(3-(2,4-difluorophenyl)-7,8-dihydro-1,6-naphthyridin-6(5H)-yl)-2,8-dimethyl-4H-pyrimido[1,2-b]pyridazin-4-one]
67 | 363 | Cc1cc(=O)n2nc(N3CCc4ncc(-c5cc(F)ncc5F)cc4C3)c(C)cc2n1 [Compound 1-258, 7-(3-(2,5-difluoropyridin-4-yl)-7,8-dihydro-1,6-naphthyridin-6(5H)-yl)-2,8-dimethyl-4H-pyrimido[1,2-b]pyridazin-4-one]
72 | 445 | COc1cnccc1-c1cnc2c(c1)CN(c1nn3c(=O)cc(C)nc3cc1C)CC2 [Compound 1-259, 7-(3-(3-methoxypyridin-4-yl)-7,8-1,6-naphthyridin-6(5H)-yl)-2,8-dimethyl-4H-pyrimido[1,2-b]pyridazin-4-one]
